US8957076B2, “Wound healing” (Systagenix Wound Management (US), Inc., priority 2004, dated 2015)

System: diabetic wounds
Assay: Closure of full thickness flank skin wounds in diabetic mice, topical treatment
Assay type: in vivo, mice (C57BLKs/Bom db/db)
Settings: for % wound area remaining relative to day 0 (mean ± standard error): six wounds
Protocol: Female diabetic mice (C57BLKs/Bom db/db; B&M, Denmark) aged approximately 16 weeks will be used in this study. On arrival mice were housed in groups of 5 to 10 according to Home Office regulations. On the first day of the study period, animals were housed in individual cages (cage dimensions 35×15×15 cm with sawdust bedding, changed twice weekly), in an environment maintained at an ambient temperature of 23° C. with 12-hour light/dark cycles. They were provided with food (Standard Rodent Diet) and water ad libitum. To acclimatise the animals to their surroundings, prior to experimentation, they were housed for a minimum of one week without disturbance, other than to refresh their bedding and to replenish their food and water provisions. Following wounding, animals were monitored until they had fully recovered from the procedure and then housed under individual conditions for the remainder of the study period. All animal procedures were carried out in a Home Office licensed establishment in accordance with Home Office Licence procedures. Animals were anaesthetised (halothane and air) and shaved. A single standardised full thickness wound (7.5 mm×7.5 mm) was created in the flank skin of each experimental animal. Wounds received, saline [50 μl], vehicle [50 μl pH 4.0 vehicle], 1 μg of p38 MAP kinase inhibitor [in 50 μl pH 4.0 vehicle] or 10 μg of p38 MAP kinase inhibitor [in 50 μl pH 4.0 vehicle]. The p38 MAP kinase inhibitor had the following formula: All wounds were secondarily dressed with a 1.5×1.5 cm pad of RELEASE dressing (Johnson & Johnson Wound Management). The RELEASE pad was held in place using a circumferential band of the occlusive film dressing Bioclusive (Johnson & Johnson Wound Management). Animals were re-anaesthetized and treatments re-applied on days 2, 4, 7, 9 and 11-post wounding. Immediately after wounding and subsequently on days 2, 4, 7, 9, 11 and 14 all wounds were digitally photographed together with a calibration/identity plate. On day 14 of the study animals will be euthanised. Image Pro image analysis software (version 4.1.0.0, Media Cybernetics, USA) was used to calculate wound closure from wound images in each of the experimental groups over time. Non-parametric analysis (Kruskal Wallis—Multivariate Analysis followed by ad hoc two sample Mann Whitney U-test analysis) will be used to test the significance of any inter-group differences in wound closure.

With `CC(=O)N1CCN(c2c(-c3ccncc3)c(-c3ccc(F)cc3)c(C#N)n2C)CC1` [p38 MAP kinase inhibitor] the “% wound area remaining relative to day 0 (mean ± standard error)” value (1.0 μg per wound in 50 μl pH 4.0 vehicle, day 2 post-wounding) was 86.15 ± 6.63%, the “% wound area remaining relative to day 0 (mean ± standard error)” value (1.0 μg per wound in 50 μl pH 4.0 vehicle, day 4 post-wounding) was 66.32 ± 6.58% and the “% wound area remaining relative to day 0 (mean ± standard error)” value (1.0 μg per wound in 50 μl pH 4.0 vehicle, day 7 post-wounding) was 38.65 ± 2.62%. The “% wound area remaining relative to day 0 (mean ± standard error)” value (1.0 μg per wound in 50 μl pH 4.0 vehicle, day 9 post-wounding) was 18.87 ± 4.44%, the “% wound area remaining relative to day 0 (mean ± standard error)” value (1.0 μg per wound in 50 μl pH 4.0 vehicle, day 11 post-wounding) was 6.03 ± 2.17% and the “% wound area remaining relative to day 0 (mean ± standard error)” value (10.0 μg per wound in 50 μl pH 4.0 vehicle, day 2 post-wounding) was 75.48 ± 6.32%. For the same compound, the “% wound area remaining relative to day 0 (mean ± standard error)” value (10.0 μg per wound in 50 μl pH 4.0 vehicle, day 4 post-wounding) was 58.34 ± 6.49%, the “% wound area remaining relative to day 0 (mean ± standard error)” value (10.0 μg per wound in 50 μl pH 4.0 vehicle, day 7 post-wounding) was 29.80 ± 4.66% and the “% wound area remaining relative to day 0 (mean ± standard error)” value (10.0 μg per wound in 50 μl pH 4.0 vehicle, day 9 post-wounding) was 13.31 ± 1.64%. The “% wound area remaining relative to day 0 (mean ± standard error)” value (10.0 μg per wound in 50 μl pH 4.0 vehicle, day 11 post-wounding) was 3.34 ± 0.96%, the “closure compared to saline treatment” value (10.0 μg, day 2, 7, 11 p=0.055, day 9 p=0.025 (statistically significant)) was “noticeably more rapid” and the “wound size compared to citrate treated wounds” value (10.0 μg, day 9 and day 11 assessment points) was “statistically smaller”. For the same compound, the “closure of diabetic wounds compared to treatment with the vehicle” value (versus Citrate Buffer, pH 4.0, effect most apparent for the highest dose) was “appeared to accelerate the closure of diabetic wounds”.
